From patent US20260022116A1, “IMIDAZOPYRIDINE COMPOUNDS, PREPARATION THEREOF AND THERAPEUTIC USES THEREOF” (SANOFI, priority 2022, published 2026)
Counter-ions that a name gives are not always drawn.

Biological target: T1, ERK5 (Homo sapiens, UniProt Q13164)
Test: biochemical
Target sequence in this assay (Q13164 55-347 limits assumed): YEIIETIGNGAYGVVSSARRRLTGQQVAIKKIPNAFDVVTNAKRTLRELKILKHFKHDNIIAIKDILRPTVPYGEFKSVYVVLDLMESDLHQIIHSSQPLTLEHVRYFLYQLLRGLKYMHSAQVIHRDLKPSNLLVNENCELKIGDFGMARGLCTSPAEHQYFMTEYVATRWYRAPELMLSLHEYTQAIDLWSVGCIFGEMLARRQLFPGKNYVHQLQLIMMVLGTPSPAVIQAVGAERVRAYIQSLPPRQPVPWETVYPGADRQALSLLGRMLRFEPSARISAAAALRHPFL
Experimental: (§1) Two assays were performed to assess the ERK5 inhibitory activity of compounds of the Examples, a cell-based assay and a cell-free biochemical assay.
An assay was performed to measure the capacity of each compound to inhibit ERK5 enzymatic activity. Compound potency was evaluated by Time-Resolved Forster Resonance Energy Transfer (FRET system). […] A mixture of 1 mM ATP and 1 μM biotinylated synthetic peptide was added (Biosyntan GmbH). This synthetic peptide represents amino acids 30-52 of Eukaryotic translation initiation factor 4E-binding protein 1 (see, e.g., the sequence under accession No. NP_004086.1) biotinylated at the N-terminus.

Row | SMILES | IC50
1 | O=C(c1ccc(S(F)(F)(F)(F)F)cc1)N1CCC(c2c(F)cnc3[nH]c(N4CCOCC4)nc23)CC1 [Example 449] | 280 nM
2 | O=C(c1ccc(OC(F)(F)F)cc1)N1CCC(c2c(F)cnc3[nH]c(C4CCC5(COC5)N(C(=O)O)C4)nc23)CC1 (racemic) [Example 461, (rac)-7-[6-fluoro-7-[1-[4-(trifluoromethoxy)benzoyl]-4-piperidyl]-3H-imidazo[4,5-b]pyridin-2-yl]-2-oxa-5-azaspiro[3.5]nonane-5-carboxylic acid] | 244 nM
3 | O=C(c1ccc(S(F)(F)(F)(F)F)cc1)N1CCC(c2c(F)cnc3[nH]c(C4CCN(C5CC5)CC4)nc23)CC1 [Example 431, [4-[2-(1-cyclopropyl-4-piperidyl)-6-fluoro-3H-imidazo[4,5-b]pyridin-7-yl]-1-piperidyl]-[4-(pentafluoro-λ^6-sulfanyl)phenyl]methanone] | 535 nM
4 | O=C(c1ccc(S(F)(F)(F)(F)F)cc1)N1CCC(c2c(F)cnc3[nH]c([C@H]4C[C@@H](O)C4)nc23)CC1 [Example 446, (cis)-[4-[6-fluoro-2-(3-hydroxycyclobutyl)-3H-imidazo[4,5-b]pyridin-7-yl]-1-piperidyl]-[4-(pentafluoro-λ^6-sulfanyl)phenyl]methanone] | 487 nM
5 | O=C(c1ccc(S(F)(F)(F)(F)F)cc1)N1CCC(c2c(F)cnc3[nH]c([C@H]4C[C@H](O)C4)nc23)CC1 [Example 448, (trans)-[4-[6-fluoro-2-(3-hydroxycyclobutyl)-3H-imidazo[4,5-b]pyridin-7-yl]-1-piperidyl]-[4-(pentafluoro-λ^6-sulfanyl)phenyl]methanone] | 175 nM
6 | O=C(c1ccc(S(F)(F)(F)(F)F)cc1)N1CCC(c2c(F)cnc3[nH]c([C@H]4CC[C@@](O)(C(F)(F)F)CC4)nc23)CC1 [Example 450, (trans)-[4-[6-fluoro-2-[4-hydroxy-4-(trifluoromethyl)cyclohexyl]-3H-imidazo[4,5-b]pyridin-7-yl]-1-piperidyl]-[4-(pentafluoro-λ^6-sulfanyl)phenyl]methanone] | 10500 nM
7 | Nc1cc(S(F)(F)(F)(F)F)ccc1C(=O)N1CCC(c2c(F)cnc3[nH]c(C4CCCO4)nc23)CC1 (racemic) [Example 383, (rac)-[2-amino-4-(pentafluoro-λ^6-sulfanyl)phenyl]-[4-(6-fluoro-2-tetrahydrofuran-2-yl-3H-imidazo[4,5-b]pyridin-7-yl)-1-piperidyl]methanone] | 385 nM

Biological target: T1, ERK5
Test: cell-based
Target sequence in this assay (Q13164 whole entry): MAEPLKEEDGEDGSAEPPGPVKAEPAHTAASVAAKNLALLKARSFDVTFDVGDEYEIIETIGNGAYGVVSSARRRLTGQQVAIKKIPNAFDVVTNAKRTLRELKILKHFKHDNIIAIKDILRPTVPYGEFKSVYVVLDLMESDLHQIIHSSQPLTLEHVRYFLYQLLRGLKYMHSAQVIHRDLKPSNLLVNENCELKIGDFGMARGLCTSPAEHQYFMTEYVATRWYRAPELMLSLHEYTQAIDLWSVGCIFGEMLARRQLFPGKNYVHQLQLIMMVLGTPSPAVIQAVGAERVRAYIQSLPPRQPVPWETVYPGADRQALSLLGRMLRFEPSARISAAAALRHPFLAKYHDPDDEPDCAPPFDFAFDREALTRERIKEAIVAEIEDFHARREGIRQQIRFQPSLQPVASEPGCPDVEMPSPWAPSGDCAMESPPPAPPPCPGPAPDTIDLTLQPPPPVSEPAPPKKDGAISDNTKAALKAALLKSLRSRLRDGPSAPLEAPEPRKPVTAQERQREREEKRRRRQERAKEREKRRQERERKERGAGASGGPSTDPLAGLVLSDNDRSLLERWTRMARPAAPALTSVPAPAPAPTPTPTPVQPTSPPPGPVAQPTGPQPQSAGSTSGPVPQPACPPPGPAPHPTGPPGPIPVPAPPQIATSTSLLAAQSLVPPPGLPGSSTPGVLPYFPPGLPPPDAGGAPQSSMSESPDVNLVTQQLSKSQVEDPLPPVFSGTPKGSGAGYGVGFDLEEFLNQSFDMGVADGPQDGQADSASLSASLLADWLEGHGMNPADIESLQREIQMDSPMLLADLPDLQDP
Experimental: as §1
The renal cancer cell line SN12C was transduced by a lentivirus pGreenFire1 MEF2 EF1 Neo (ref TR030VA-N) from SBI using standard infection protocol. pGreenFire1 MEF2 EF1 Neo allows the expression of luciferase gene under the control of minimal promoter with MEF2 transcriptional response elements. Cells harboring the reporter construct were selected by geneticin treatment. The selected cells were then transposed by a piggyback based plasmid pCM4007 allowing the expression of constitutively activated MEK5DD under control of TREG3 promoter, a doxycycline regulated promoter. Transposed cells were selected by puromycin treatment. Upon doxycycline treatment (1 μg/ml) MEK5DD was expressed. MEK5DD activates ERK5 that phosphorylates MEF2C protein. Activated MEF2C protein can bind to its transcriptional response elements. Then the luciferase is expressed. In a 96-well plate (96F nuncleon ref137101 thermofisher), 50,000 cells were inoculated in 142.5 μl of RPMI medium containing 10% fetal calf serum, 1% glutamine, and 1 μg/ml doxycycline. […] The luciferase activity was measured using the Kit Bright Glo Luminescent Cell Assay Cat E2610 (Promega) according to the manufacturer's protocol. Luminescence was determined using 0.2 second reading/well using a Tecan SPARK. IC50 values were calculated using XLFIT5 for Microsoft Excel using method 205.

Row | SMILES | IC50
8 | O=C(c1cnn2c1NCCC2C(F)(F)F)N1CCC(c2ccnc3[nH]c(C4CCOCC4)nc23)CC1 (centres unmarked) [Example 79, [4-(2-tetrahydropyran-4-yl-3H-imidazo[4,5-b]pyridin-7-yl)-1-piperidyl]-[7-(trifluoromethyl)-4,5,6,7-tetrahydropyrazolo[1,5-a]pyrimidin-3-yl]methanone] | 7890 nM
9 | Nc1cc(OC(F)(F)F)ccc1C(=O)N1CCC(c2ccnc3[nH]c(C4CCOC4)nc23)CC1 (single isomer, unassigned) [Example 186, [2-amino-4-(trifluoromethoxy)phenyl]-[4-[2-[tetrahydrofuran-3-yl]-3H-imidazo[4,5-b]pyridin-7-yl]-1-piperidyl]methanone] | 27 nM
10 | O=C(c1ccc(OC(F)(F)F)cc1)N1CCC(c2ccnc3[nH]c(-c4cnc5ccc(C(F)(F)F)cc5c4O)nc23)CC1 [Example 230, [4-[2-[4-hydroxy-6-(trifluoromethyl)-3-quinolyl]-3H-imidazo[4,5-b]pyridin-7-yl]-1-piperidyl]-[4-(trifluoromethoxy)phenyl]methanone] | 6480 nM
11 | CC(C)(C)OC(=O)Nc1cc(OC(F)(F)F)ccc1C(=O)N1CCC(c2ccnc3[nH]c(C4CCOCC4)nc23)CC1 [Example 190, tert-butyl N-[2-[4-(2-tetrahydropyran-4-yl-3H-imidazo[4,5-b]pyridin-7-yl)piperidine-1-carbonyl]-5-(trifluoromethoxy)phenyl]carbamate] | 979 nM
12 | O=C(C1CC12C(=O)Nc1ccccc12)N1CCC(c2ccnc3[nH]c(C4CCOCC4)nc23)CC1 (centres unmarked) [Example 117, 2-[4-(2-tetrahydropyran-4-yl-3H-imidazo[4,5-b]pyridin-7-yl)piperidine-1-carbonyl]spiro[cyclopropane-1,3′-indoline]-2′-one] | > 10000 nM
13 | CCn1c(=O)c(=O)[nH]c2cc(-c3nc4c(C5CCN(C(=O)c6ccc(OC(F)(F)F)cc6)CC5)ccnc4[nH]3)ccc21 [Example 139, 1-ethyl-3-hydroxy-6-[7-[1-[4-(trifluoromethoxy)benzoyl]-4-piperidyl]-3H-imidazo[4,5-b]pyridin-2-yl]quinoxalin-2-one] | 3270 nM
14 | Nc1c(C(=O)N2CCC(c3ccnc4[nH]c(C5CCOCC5)nc34)CC2)sc(C(F)(F)F)c1-c1ccccc1 [Example 92, [3-amino-4-phenyl-5-(trifluoromethyl)-2-thienyl]-[4-(2-tetrahydropyran-4-yl-3H-imidazo[4,5-b]pyridin-7-yl)-1-piperidyl]methanone] | 2250 nM
15 | CO[C@H]1CC[C@H](c2nc3c(C4CCN(C(=O)c5ccc(OC(F)(F)F)cc5)CC4)ccnc3[nH]2)CC1 [Example 153, (trans)-[4-(trifluoromethoxy)phenyl]-[4-[2-(4-methoxycyclohexyl)-3H-imidazo[4,5-b]pyridin-7-yl]-1-piperidyl]methanone;hydrochloride] | 195 nM
16 | O=C(c1cccc(N2CCCS2(=O)=O)c1)N1CCC(c2ccnc3[nH]c(C4CCOCC4)nc23)CC1 [Example 85, [3-(1,1-dioxo-1,2-thiazolidin-2-yl)phenyl]-[4-(2-tetrahydropyran-4-yl-3H-imidazo[4,5-b]pyridin-7-yl)-1-piperidyl]methanone] | > 10000 nM
17 | O=C(C1CC(=O)N(c2ccc(F)c(F)c2)C1)N1CCC(c2ccnc3[nH]c(C4CCOCC4)nc23)CC1 (centres unmarked) [Example 107, 1-(3,4-difluorophenyl)-4-[4-(2-tetrahydropyran-4-yl-3H-imidazo[4,5-b]pyridin-7-yl)piperidine-1-carbonyl]pyrrolidin-2-one] | > 10000 nM
18 | O=S(=O)(c1ccc(OC(F)(F)F)cc1)N1CCC(c2ccnc3[nH]c(C4CCOCC4)nc23)CC1 [Example 165, 2-tetrahydropyran-4-yl-7-[1-[4-(trifluoromethoxy)phenyl]sulfonyl-4-piperidyl]-3H-imidazo[4,5-b]pyridine] | > 10000 nM
19 | O=C(c1n[nH]c2ccccc12)N1CCC(c2ccnc3[nH]c(C4CCOCC4)nc23)CC1 [Example 78, 1H-indazol-3-yl-[4-(2-tetrahydropyran-4-yl-3H-imidazo[4,5-b]pyridin-7-yl)-1-piperidyl]methanone] | 3600 nM
20 | O=C1CC(C(=O)N2CCC(c3ccnc4[nH]c(C5CCOCC5)nc34)CC2)CN1Cc1ccccc1Cl (centres unmarked) [Example 110, 1-[(2-chlorophenyl)methyl]-4-[4-(2-tetrahydropyran-4-yl-3H-imidazo[4,5-b]pyridin-7-yl)piperidine-1-carbonyl]pyrrolidin-2-one] | > 10000 nM
21 | COC12CC(C(=O)N3CCC(c4ccnc5[nH]c(C6CCOCC6)nc45)CC3)(C1)C2 [Example 58, (3-Methoxy-1-bicyclo[1.1.1]pentanyl)-[4-(2-tetrahydropyran-4-yl-3H-imidazo[4,5-b]pyridin-7-yl)-1-piperidyl]methanone] | > 10000 nM
22 | O=C(C1CC(=O)N(c2ccc(F)cc2)C1)N1CCC(c2ccnc3[nH]c(C4CCOCC4)nc23)CC1 (centres unmarked) [Example 111, 1-(4-fluorophenyl)-4-[4-(2-tetrahydropyran-4-yl-3H-imidazo[4,5-b]pyridin-7-yl)piperidine-1-carbonyl]pyrrolidin-2-one] | > 10000 nM
23 | CCn1cc(N)c(C(=O)N2CCC(c3ccnc4[nH]c(C5CCOCC5)nc34)CC2)n1 [Example 115, (4-amino-1-ethyl-pyrazol-3-yl)-[4-(2-tetrahydropyran-4-yl-3H-imidazo[4,5-b]pyridin-7-yl)-1-piperidyl]methanone] | > 10000 nM
24 | O=C(c1ccc(OC(F)(F)F)cc1)N1CCC(c2ccnc3[nH]c(-c4csc(-c5cc(Cl)ccc5O)n4)nc23)CC1 [Example 135, [4-[2-[2-(5-chloro-2-hydroxy-phenyl)thiazol-4-yl]-3H-imidazo[4,5-b]pyridin-7-yl]-1-piperidyl]-[4-(trifluoromethoxy)phenyl]methanone] | > 10000 nM
25 | O=C(c1nn(-c2ccccc2C(F)(F)F)cc1O)N1CCC(c2ccnc3[nH]c(C4CCOCC4)nc23)CC1 [Example 89, [4-hydroxy-1-[2-(trifluoromethyl)phenyl]pyrazol-3-yl]-[4-(2-tetrahydropyran-4-yl-3H-imidazo[4,5-b]pyridin-7-yl)-1-piperidyl]methanone] | 3160 nM
26 | Nc1cc(OC(F)(F)F)ccc1C(=O)N1CCC(c2ccnc3[nH]c(C4CCOC4)nc23)CC1 (single isomer, unassigned) [Example 187, [2-amino-4-(trifluoromethoxy)phenyl]-[4-[2-[tetrahydrofuran-3-yl]-3H-imidazo[4,5-b]pyridin-7-yl]-1-piperidyl]methanone] | 41 nM
27 | Cc1cc2ncc(C(=O)N3CCC(c4ccnc5[nH]c(C6CCOCC6)nc45)CC3)c(N)n2n1 [Example 109, (7-amino-2-methyl-pyrazolo[1,5-a]pyrimidin-6-yl)-[4-(2-tetrahydropyran-4-yl-3H-imidazo[4,5-b]pyridin-7-yl)-1-piperidyl]methanone] | 7940 nM
28 | Nc1cc(OC(F)(F)F)ccc1C(=O)N1CCC(c2ccnc3[nH]c(C4CNCC(F)(F)C4)nc23)CC1 (single isomer, unassigned) [Example 162, [2-amino-4-(trifluoromethoxy)phenyl]-[4-[2-[5,5-difluoro-3-piperidyl]-3H-imidazo[4,5-b]pyridin-7-yl]-1-piperidyl]methanone] | 261 nM
29 | CC(Oc1ccc(C(F)(F)F)cc1Cl)C(=O)N1CCC(c2ccnc3[nH]c(C4CCOCC4)nc23)CC1 (centres unmarked) [Example 87, 2-[2-chloro-4-(trifluoromethyl)phenoxy]-1-[4-(2-tetrahydropyran-4-yl-3H-imidazo[4,5-b]pyridin-7-yl)-1-piperidyl]propan-1-one] | > 10000 nM
